Assay results published in patent publication US20120245344A1 (NIPPON CHEMIPHAR CO., LTD., priority 2009, published 2012).
Entries after “also recorded” stand apart in the source; their conditions may differ.

What was measured:
[1] = test system: glycemic excursions after glucose administration in normal mice; assay: Oral glucose tolerance test in normal mice; format: in vivo, mice (male ICR); details: for Inhibition rate (%): 30 min before glucose 3 g/kg, area under the glycemic excursion curve 0-120 min versus vehicle
Experimental: In this experiment, the inhibitory effect of an analyte on glycemic excursions is examined after glucose administration in normal mice. The test methods are described below.
(§1) Male 9-week-old ICR mice, habituated to the experimental environment for two weeks, are fasted for 18 hours and used to this experiment. Mice are orally administered the analyte or vehicle (polyethylene glycol 400:ethanol:Tween 80=8:1:1). After 30 minutes, they were orally given glucose at the dose of 3 g/kg.
Blood was collected at just before the analyte or vehicle administration (−30 minutes), immediately before glucose challenge (0 minute), 20 minutes, 40 minutes, 60 minutes, and 120 minutes after glucose ingestion to determine blood glucose levels.
Inhibition rate (%) of the analyte versus vehicle in areas under the glycemic excursion curve between 0 and 120 min after glucose challenge is determined.
In this experiment, we examined the inhibitory effect of test compound on glycemic excursions after glucose administration in normal mice. The test methods are shown as follows.
as §1, with “were” for “are”, “test compound” for “analyte”, “400:ethanol:Tween80=8:1:1), and after” for “400:ethanol:Tween 80=8:1:1). After”
Blood was collected at just before the test compound or vehicle administration (−30 min), immediately before glucose challenge (0 min), 20 min, 40 min, 60 min and 120 min after glucose ingestion and then blood glucose levels were determined.
Inhibition rate (%) of the test compound versus vehicle in areas under the glycemic excursion curve between 0 and 120 min after glucose challenge was determined.
Except for the dose of test compounds made 1 mg/kg, the examination was performed by the method similar to Example 89 oral glucose tolerance test in normal mice.

human GPR119 = target: T1, human GPR119 (Homo sapiens, UniProt Q8TDV5); assay: Measurement of intracellular cAMP in stable cell line expressing human GPR119 (GPR119 agonist effect); format: cell-based; details: for EC50: increase of intracellular cAMP, Flp-in T-Rex-293 cells expressing human GPR119, 37° C. for 30 minutes
T1 construct: expressed in transfected cells; host or cells: Flp-in T-Rex-293 cells (Invitrogen #R78007), plasmid pcDNA5/FRT/TO, expression induced with tetracycline
T1 sequence (Q8TDV5 1-335): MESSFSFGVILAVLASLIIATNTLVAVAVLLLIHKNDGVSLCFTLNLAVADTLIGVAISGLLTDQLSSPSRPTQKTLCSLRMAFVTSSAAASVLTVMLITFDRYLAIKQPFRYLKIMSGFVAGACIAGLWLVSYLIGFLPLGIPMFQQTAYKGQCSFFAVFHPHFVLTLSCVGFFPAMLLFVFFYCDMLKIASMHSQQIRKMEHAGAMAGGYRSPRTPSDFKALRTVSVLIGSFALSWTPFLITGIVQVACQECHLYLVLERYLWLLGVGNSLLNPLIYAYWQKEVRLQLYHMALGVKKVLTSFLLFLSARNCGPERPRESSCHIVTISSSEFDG
From the text: The GPR119 agonist effect is studied by measuring the effect of an analyte on increase of intracellular amount of cAMP in human GPR119 introduced cells. The testing method is described below.
Human GPR119 gene (NM 178471) is purchased from ATCC (ATCC No. 10807349), and is amplyfied according to PCR to form BamHI site at 5′ side and Apa I site at 3′ side. The primers are […] (sequence No. 1) and […] (sequence No. 2). The PCR conditions are described below.
The double-stranded DNA is thermally denatured using a DNA polymerase (KOD-Plus-Ver. 2; TOYOBO #KOD-211) at 98° C. for 10 seconds in one cycle. The denatured single-stranded DNA is annealed with the primers at 55° C. for 30 seconds. The DNA is subjected to an extension reaction at 68° C. for 1 minute and 15 seconds. The above-mentioned steps are repeated in 35 cycles. The PCR product is inserted into pcDNA5/FRT/TO (Invitrogen #V6520-20) plasmid. Flp-in T-Rex-293 cells (Invitorogen #R78007) are transfected with the obtained plasmid. The method of transfection is conducted in accordance with the protocol of the product.
(§2) The stable cell line expressing human GPR119 prepared in the above-mentioned method is plated on a 96-well plate at the concentration of 2,500 cells/well using Dulbecco's Modified Eagle Medium (DMEM) containing 10% fetal bovine serum (FBS). Twenty-four hours after plating, tetracyclin (Invitrogen #Q10019) is added at the final concentration of 20 ng/mL to induce hGPR119 gene expression. Twenty-four hours after, the medium is removed, and the cells are stimulated with an assay buffer (0.5 mM IBMX PBS (−)) containing the test compound at 37° C. for 30 minutes. The amount of the intracellular cAMP is measured using a commercially available kit (HitHunter™ cAMP XS+Assay: GE Healthcare #90007503) and a reader (FLUOstar Optima: BMG LABTECH). The test compound is dissolved in 100% DMSO, and added at the final concentration of 1%.
Human GPR119 gene (NM 178471) was purchased from ATCC (ATCC No. 10807349), and is amplyfied according to PCR to form BamHI site at 5′ side and Apa I site at 3′ side. The primers were […] (sequence No. 1) and […] (sequence No. 2). The PCR conditions are described below. The double-stranded DNA was thermally denatured using a DNA polymerase (KOD-Plus-Ver. 2; TOYOBO #KOD-211) at 98° C. for 10 seconds in one cycle. The denatured single-stranded DNA was annealed with the primers at 55° C. for 30 seconds. The DNA was subjected to an extension reaction at 68° C. for 1 minute and 15 seconds. The above-mentioned steps were repeated in 35 cycles. The PCR product was inserted into pcDNA5/FRT/TO (Invitrogen #V6520-20) plasmid. Flp-in T-Rex-293 cells (Invitorogen #R78007) were transfected with the obtained plasmid. The method of transfection was conducted in accordance with the protocol of the product.
as §2, with “method was” for “method is”, “#Q10019) was” for “#Q10019) is”, “medium was” for “medium is”, “cells were” for “cells are”, “cAMP was” for “cAMP is”, “compound was” for “compound is”
The examination was performed by the method similar to Example 87 Pharmacological experiment 1-(1), -(2).

[2] = 1 mg/kg, statement in words on Table 15
[3] = 3 mg/kg, statement in words on Table 14

## CC(C)(C)OC(=O)N1CCC(c2ccc(Cn3ccc4cc(S(C)(=O)=O)c(F)cc43)nc2)CC1 [Example 24, tert-Butyl 4-[2-(6-fluoro-5-methanesulfonylindol-1-ylmethyl)pyridin-5-yl]piperidine-1-carboxylate]
[1]; 1 mg/kg oral
  Inhibition rate (%): 37.9%
[1]; [2]
  inhibitory effect on glycemic excursions (in words): excellent inhibitory effect on glycemic excursions; also recorded: excellent inhibitory effect of glycemic excursions
Human GPR119
  EC50: 19 nM

## CC(C)(C)OC(=O)N1CCC(c2ccc(Cn3ccc4cc(S(C)(=O)=O)ccc43)nc2)CC1 [Example 1, tert-Butyl 4-[2-(5-methanesulfonylindol-1-ylmethyl)pyridin-5-yl]piperidine-1-carboxylate]
[1]; 3 mg/kg oral
  Inhibition rate (%): 37.9%
[1]; [3]
  inhibitory effect on glycemic excursions (in words): excellent inhibitory effect on glycemic excursions; also recorded: excellent inhibitory effect of glycemic excursions
Human GPR119
  EC50: 21.2 nM

## CC(C)(C)OC(=O)N1CCC(c2ccc(COc3ccc4c(c3)C=CS4(=O)=O)nc2)CC1 [Example 10, tert-Butyl 4-[2-(1,1-dioxo-1H-benzo[b]thiophen-5-yloxymethyl)pyridin-5-yl]piperidine-1-carboxylate]
other
  melting point: 154 to 157 °C
Human GPR119
  EC50: 353 nM

## CC(C)OC(=O)N1CCC(c2ccc(Cn3ccc4cc(-n5cnnn5)cc(F)c43)nc2)CC1 [Example 54, Isopropyl 4-[2-[7-fluoro-5-(tetrazol-1-yl)indol-1-ylmethyl]pyridin-5-yl]piperidine-1-carboxylate]
[1]; 1 mg/kg oral
  Inhibition rate (%): 36.0%
[1]; [2]
  inhibitory effect on glycemic excursions (in words): excellent inhibitory effect on glycemic excursions; also recorded: excellent inhibitory effect of glycemic excursions
Human GPR119
  EC50: 9.6 nM

## CC(C)(C)OC(=O)N1CCC(c2ccc(CN3CCc4cc(S(C)(=O)=O)ccc43)nc2)CC1 [Example 2]
[1]; 3 mg/kg oral
  Inhibition rate (%): 33.7%
[1]; [3]
  inhibitory effect on glycemic excursions (in words): excellent inhibitory effect on glycemic excursions; also recorded: excellent inhibitory effect of glycemic excursions
Human GPR119
  EC50: 20.5 nM
Human GPR119; statement in words on Tables 10 to 13
  GPR119 agonist effect (in words): excellent GPR119 agonist effect

## CC(C)(C)OC(=O)N1CCC(c2ccc(C(=O)N3CCc4cc(S(C)(=O)=O)ccc43)nc2)CC1 [Example 8, tert-Butyl 4-[2-(5-methanesulfonylindoline-1-carbonyl)pyridin-5-yl]piperidine-1-carboxylate]
other
  melting point: 202 to 205 °C

## CC(C)(C)OC(=O)N1CCC(c2ccc(Cn3cc4cc(S(C)(=O)=O)ccc4n3)nc2)CC1 [Example 22, tert-Butyl 4-[2-(5-methanesulfonylindazol-2-ylmethyl)pyridin-5-yl]piperidine-1-carboxylate]
Human GPR119
  EC50: 458 nM
